According to publication PMC7290497, “Tubulin Resists Degradation by Cereblon-Recruiting PROTACs” (Cells, 2020):
“Also recorded” adds a separate entry of the source. Like-named read-outs stand apart in the source and are kept apart here. Square brackets hold non-standard residues; d marks the D form. Peptide text beside a SMILES is read from it. * marks the point of attachment. Dolaproine = CO[C@@H]([C@@H]1CCCN1)[C@@H](C)C(=O)O; X1 = O=C1CCC(N2C(=O)c3cccc(*)c3C2=O)C(=O)N1; Dil = CC[C@H](C)[C@H](NC)[C@@H](CC(=O)O)OC; X2 = C[C@@H](N*)[C@@H](O)c1ccccc1; NMeV = CN[C@H](C(=O)O)C(C)C; 12Ado = NCCCCCCCCCCCC(=O)O

How the values were obtained:
[1] = test system: microtubule cytoskeleton in hTert-RPE1 cells; experiment: Biochemical partitioning of tubulin into soluble (S) and polymerized (P) fractions; assay type: cell-based, human; details: 1 μM, 5 h
Method: (§1) The human telomerase reverse transcriptase immortalized retinal pigment epithelium 1 (hTert-RPE1) cell line used in this study was grown at 37 °C with 5% CO2 in a humidified incubator. Cells were grown in Dulbecco’s modified medium (nutrient mixture F12, DMEM/F12) supplemented with 10% fetal bovine serum, and 1% (v:v) penicillin/streptomycin (pen/strep). The Flp293T-based BRD4BD2-GFP mCherry reporter cell line was grown in DMEM supplemented with 10% FBS. The synthesized small molecules and the parental microtubule poisons were dissolved in DMSO; 0.01% DMSO was used as vehicle control.
For tubulin partitioning into soluble and polymerized fractions, cells were grown in 12-well dishes at 70–80% confluence. Cells were gently washed with PBS pre-warmed to 37 °C. Soluble tubulin was extracted by incubating cells in 300 µL of tubulin extraction buffer containing 60 mM PIPES (pH 6.8), 25 mM HEPES (pH 7.2), 10 mM EGTA (pH 7–8), 2 mM MgCl2, 0.5% TritonX-100, 10 µM Paclitaxel (Sigma Aldrich, St. Louis, MO USA), and a protease inhibitor tablet (Roche, Branchburg, NJ, USA) for 2 min at room temperature. The extraction buffer with soluble protein was collected and mixed with 100 µL 4× SDS sample buffer. The remaining material containing polymerized tubulin was then collected by adding 400 µL 1× SDS sample buffer and scraping the dish. All samples were denatured at 100 °C for 10 min. Equal aliquots of samples were further concentrated two-fold by evaporation at 100 °C for 3–5 min immediately prior to SDS-PAGE gel electrophoresis.
(§2) The Precision Plus Protein Dual Color Standard ladder was used for all immunoblots (BioRad, USA). Primary antibodies were diluted: 1:5000 beta-actin (Cell Signaling Technologies, Danvers, MA, USA, #4970), 1:15000 GAPDH (Cell Signaling Technologies, #2118), 1:10000 alpha-tubulin (DM1alpha, Millipore, Burlington, MA, USA, #05-829), and 1:5000 beta-tubulin (Cell Signaling Technologies, # 2128). Secondary antibodies were diluted: 1:15000 goat anti-mouse DyLight 680 conjugated (Thermo Fisher Scientific, #35518), 1:15000 goat anti-rabbit DyLight 800 conjugated (Thermo Fisher Scientific, #35571). The Odyssey Infra-Red Imaging System (LI-COR, Lincoln, NE, USA) equipped with the Image Studio software was used to image and analyze immunoblots. Data plotting and statistical analysis were carried out in Microsoft Excel (Redmond, WA, USA) and R (Vienna, Austria).

[2] = test system: α-tubulin (TUBA) and β-tubulin (TUBB) in hTert-RPE1 cells; experiment: Western blot of tubulin protein levels (tubulin degradation) in whole-cell extracts; assay type: cell-based, human; details: for degradation of tubulin (TUBA and TUBB protein levels, Western blot): normalized to ACTB and DMSO; for tubulin degradation in time-course experiment: five hours, data not shown
Method: as §1
Whole-cell extracts for immunoblot analysis were prepared by cell lysis in 2× SDS sample buffer composed of 50 mM Tris-HCl pH 6.8, 2% SDS, 10% glycerol, 143 mM β-mercaptoethanol, 12.5 mM EDTA, and 0.02% bromophenol blue in water. Samples were denatured at 100 °C for 10 min and then subjected to SDS-PAGE gel electrophoresis on 1.5 mm NuPAGE Novex 4–12% Bis-Tris Protein Gels (Thermo Fisher Scientific, Waltham, MA, USA), using the Mini Trans-Blot Cell system (BioRad, Hercules, CA, USA).
as §2
As positive controls, we prepared two of the literature molecules, T007-1 and a related T138067 (Figure 2A). We modified the originally reported synthesis of T007-1, instead using 2-chloro-5-nitrobenzoyl chloride, as the reported dicyclohexyl carbodiimide (DCC) coupling with 2-chloro-5-nitrobenzoic acid led to inseparable mixtures of mono- and diacylation (See Supplementary Material for full details). We treated human retinal pigment epithelium 1 (hTert-RPE1) cells, a widely used cell model, with T007-1 and T138067 degraders at a range of concentrations from 5 nM to 10 μM. Prolonged compound treatment was expected to cause activation of the spindle assembly checkpoint and an arrest in the mitotic stage of the cell cycle, which could have an effect on tubulin levels independently of tubulin degradation. To exclude this possibility, we used contact-inhibited quiescent cells (hTert-RPE1 cells stop proliferating at high growth density). In addition, to minimize the probability that some cells escape the cell cycle arrest and continue to proliferate, we opted for a short 5 h treatment of cells with the compounds, which was previously reported to be sufficient to degrade tubulin [35]. […] Therefore, as previously reported, this series of compounds led to degradation of tubulin and a global decrease of both soluble and polymerized tubulin levels.

CRBN = target: T1, CRBN (Homo sapiens, UniProt Q96SW2); experiment: Competitive displacement assay for cellular CRBN engagement (rescue of dBET6-mediated BRD4BD2-eGFP degradation, mCherry reporter cells); assay type: cell-based
T1 construct: Quantitative assessment of intracellular CRBN engagement; endogenous in cells; host or cells: Flp293T-based BRD4BD2-GFP mCherry reporter cell line
Method: as §1
Supplementary Figure S3. MMAE-CRBN compounds engage CRBN in cells. Quantitative assess-ment of intracellular CRBN engagement using a BRD4BRD2-eGFP-mCherry reporter assay. CRBN engagement was assessed by monitoring rescue of dBET6-mediated degradation of BRD4BRD2-eGFP.
Cells stably expressing BRD4BRD2-eGFP and mCherry were treated with 100 nM of dBET6, a specific degrader of BRD4BRD2, and increasing concentrations of the candidate tubulin degraders. The eGFP and mCherry signals were quantified by laser scanning cytometry and the concentration of compound that rescued 50% of BRD4BRD2-eGFP fluorescence (EC50) was determined by nonlinear regression. Data from n=2 biological replicates. Error bars represent standard deviation of the mean. CPD – compound with […]
(also on this page, place not known: BRD4 BRD2-eGFP-mCherry (BJG-02-095)1 100Relative abundance 100Relative abundance 100Relative abundance) […]
Supplementary Figure S6. CA4-CRBN compounds engage CRBN in cells. Quantitative assessment of intracellular CRBN engagement using a BRD4BRD2-eGFP-mCherry reporter assay. CRBN engage-ment was assessed by monitoring rescue of dBET6-mediated degradation of BRD4BRD2-eGFP. Cells stably expressing BRD4BRD2-eGFP and mCherry were treated with 100 nM of dBET6, a specific degrad-er of BRD4BRD2, and increasing concentrations of the candidate tubulin degraders. The eGFP and […]
(also on this page, place not known: BRD4 BRD2-eGFP. (BJG-02-158)10 Relative abundance 100Relativeabundance) […]
3. Competitive displacement assay for cellular CRBN engagement
Cells stably expressing the BRD4BD2-GFP with mCherry reporter were seeded at 30-50% confluency in 384-well plates with 50 µL FluoroBrite DMEM media (Thermo Fisher Scientific A18967) containing 10% FBS per well a day before compound treatment. Compounds and 100 nM dBET6 were dispensed using a D300e Digital Dispenser (HP), normalized to 0.5% DMSO, and incubated with cells for 5 hours. The assay plate was imaged immediately using an Acumen High Content Imager (TTP Labtech) with 488 nm and 561 nm lasers in 2 µm x 1 µm grid per well format. The resulting images were analyzed using CellProfiler.
A series of image analysis steps (‘image analysis pipeline’) was constructed. First, the red and green channels were aligned and cropped to target the middle of each well (to avoid analysis of heavily clumped cells at the edges), and a background illumination function was calculated for both red and green channels of each well individually and subtracted to correct for illumination variations across the 384-well plate from various sources of error. An additional step was then applied to the green channel to suppress the analysis of large auto fluorescent artifacts and enhance the analysis of cell specific fluorescence by way of selecting for objects under a given size, 30 A.U., and with a given shape, speckles. mCherry-positive cells were then identified in the red channel filtering for objects between 8-60 pixels in diameter and using intensity to distinguish between clumped objects. The green channel was then segmented into GFP positive and negative areas and objects were labeled as GFP positive if at least 40% of it overlapped with a GFP positive area. The fraction of GFP-positive cells/mCherry-positive cells in each well was then calculated, and the green and red images were rescaled for visualization. The values for the concentrations that lead to a 50% […]

[3] = hTert-RPE1 cells, 5 nM to 10 μM, 5 h
[4] = IC50, intracellular CRBN engagement (rescue of 50% of BRD4BRD2-eGFP fluorescence), Supplementary Figures S3 and S6, 100 nM dBET6, n=2 biological replicates

Row | Compound | microtubule destabilization (soluble S vs polymerized P fraction of tubulin) [1] | degradation of tubulin (TUBA and TUBB protein levels, Western blot) [2, 3] | cell permeability as judged by the cellular CRBN engagement assay (CRBN) | IC50 (CRBN; [4]) [nM] | also measured
1 | CC[C@H](C)[C@@H]([C@@H](CC(=O)N1CCC[C@H]1[C@H](OC)[C@@H](C)C(=O)N[C@H](C)[C@@H](O)c1ccccc1)OC)N(C)C(=O)[C@@H](NC(=O)[C@H](C(C)C)N(C)CCOCCOCCOCCOCCNc1cccc2c1C(=O)N(C1CCC(=O)NC1=O)C2=O)C(C)C (stereo partly shown) [Compound 1] | microtubule destabilization | no degradation | cell-permeable | 342 | IC50 (CRBN; IC50, cellular CRBN engagement, 100 nM dBET6, 5 hours): 342 nM
2 | CC[C@H](C)[C@@H]([C@@H](CC(=O)N1CCC[C@H]1[C@H](OC)[C@@H](C)C(=O)N[C@H](C)[C@@H](O)c1ccccc1)OC)N(C)C(=O)[C@@H](NC(=O)[C@H](C(C)C)N(C)C(=O)CCCCCCCCCCCNc1cccc2c1C(=O)N(C1CCC(=O)NC1=O)C2=O)C(C)C (stereo partly shown) [Compound 3] ({X1-12Ado}-[NMeV]V[Dil][Dolaproine]-X2) | microtubule destabilization | no degradation |  |  | CRBN engagement / CRBN binding in cells (in words) (CRBN; 100 nM dBET6, 5 hours): very weak CRBN engagement; IC50 (CRBN; 100 nM dBET6, 5 hours, read-out: IC50, cellular CRBN engagement): ~10000 nM
3 | CC[C@H](C)[C@@H]([C@@H](CC(=O)N1CCC[C@H]1[C@H](OC)[C@@H](C)C(=O)N[C@H](C)[C@@H](O)c1ccccc1)OC)N(C)C(=O)[C@@H](NC(=O)[C@H](C(C)C)N(C)CCOCCOCCOCCNc1cccc2c1C(=O)N(C1CCC(=O)NC1=O)C2=O)C(C)C (stereo partly shown) [Compound 5] |  |  |  | 467 | 
4 | CC[C@H](C)[C@@H]([C@@H](CC(=O)N1CCC[C@H]1[C@H](OC)[C@@H](C)C(=O)N[C@H](C)[C@@H](O)c1ccccc1)OC)N(C)C(=O)[C@@H](NC(=O)[C@H](C(C)C)N(C)CCOCCOCCOCCOCCOCCNc1cccc2c1C(=O)N(C1CCC(=O)NC1=O)C2=O)C(C)C (stereo partly shown) [Compound 6] |  |  |  | 440 | 
5 | COc1ccc(/C=C\c2cc(OC)c(OC)c(OC)c2)cc1OCCOCCOCCOCCNc1cccc2c1C(=O)N(C1CCC(=O)NC1=O)C2=O (stereo not shown) [Compound 10] |  |  | cell permeable | 1480 | 
6 | COc1ccc(/C=C\c2cc(OC)c(OC)c(OC)c2)cc1OCCOCCOCCOCCOCCNc1cccc2c1C(=O)N(C1CCC(=O)NC1=O)C2=O (stereo not shown) [Compound 11] |  |  | cell permeable | 572 | 
7 | COc1ccc(/C=C\c2cc(OC)c(OC)c(OC)c2)cc1OCCOCCOCCOCCOCCOCCNc1cccc2c1C(=O)N(C1CCC(=O)NC1=O)C2=O (stereo not shown) [Compound 12] |  |  | cell permeable | 655 | 
8 | COc1ccc(/C=C\c2cc(OC)c(OC)c(OC)c2)cc1NCCOCCOCCOCCOCCNc1cccc2c1C(=O)N(C1CCC(=O)NC1=O)C2=O (stereo not shown) [Compound 13] | no microtubule-destabilizing activity | unsuccessful in degrading tubulin |  |  | CRBN engagement / CRBN binding in cells (in words) (CRBN; 100 nM dBET6, 5 hours): efficient binding to CRBN; IC50 (CRBN; Supplementary Figures S3 and S6, 100 nM dBET6, n=2 biological replicates, read-out: IC50, intracellular CRBN engagement (rescue of 50% of BRD4BRD2-eGFP fluorescence)): 3720 nM
9 | O=C(Nc1ccnc(NCc2cccc(Oc3ccccc3)c2)c1)c1cc([N+](=O)[O-])ccc1Cl [Compound T007-1] | decreased levels of both soluble (S) and polymerized (P) fractions of tubulin; also recorded: both the S and the P fraction of tubulin decrease | decrease in tubulin levels |  |  | tubulin degradation in time-course experiment [2]: efficiently degrade tubulin; potency in decreasing tubulin levels, T007-1 compared with T138067 [2, 3]: significantly more potent
10 | COc1ccc(NS(=O)(=O)c2c(F)c(F)c(F)c(F)c2F)cc1F [Compound T138067] | both the S and the P fraction of tubulin decrease | decrease in tubulin levels |  |  | tubulin degradation in time-course experiment [2]: efficiently degrade tubulin
